Measurements published in patent publication US20100200049A1, “BIOHYBRID SYSTEM FOR HYDROGEN PRODUCTION” (Alliance for Sustainable Energy, LLC, priority 2008, published 2010).

Columns and labels:
PS II [1] = target: T1, PS II (Thermosynechococcus vestitus, UniProt P0A444); test: Photocurrent of GC-PS II electrode wired to hydrogenase electrode, with DCMU added; format: biochemical, Thermosynechococcus elongatus; conditions: 5 μM and 10 μM DCMU in working solution; red light 660 nm, 10 s light/40 s dark; all oxidizing potentials tested (+0.2 to +1.0 V)
T1 construct: PS II complexes were isolated from Thermosynechococcus elongatus; from tissue; host or cells: Thermosynechococcus elongatus cells (photosynthetic membranes); method of Schatz and Witt 1984 with modifications
Experimental: (§1) PS II complexes were isolated from Thermosynechococcus elongatus according to methods described by Schatz and Witt (1984, Extraction and characterisation of oxygen-evolving Photosystem II complexes from a thermophilic cyanobacterium Synechococcus sp. Photobiochem. Photobiophys. 7: 1-14) with modifications.
(§2) The PS II electrode was prepared by depositing 5 μl of 1 mM isolated PS II complex preparation onto the electrode in almost complete darkness, with a weak non-actinic green light present, and dried overnight at +4° C. in darkness. A pyrolytic graphite edge (PGE) electrode with a diameter of 4.8 mm or a glassy carbon (GC) electrode with a diameter of 3 mm was used. Directly before the experiment, the surface of the electrode containing dried PS II sample was covered with a dialysis membrane (12000-14000 MW cutoff) that was held in place by o-ring.
The photocurrent was generated by illumination of the PS II electrode by red LED (660 nm) or white LED. The following light/dark cycle was used: 10 s light, 40 s dark, unless specified otherwise.
The experiments in which the PS II electrode was tested by addition of DCMU were performed using the GC-PS II electrode, wired to a 4.8 mm diameter PGE-hydrogenase electrode. […]

PS II [2] = target: T1, PS II; test: Photocurrent of PGE-PS II electrode with soluble electron mediator; format: biochemical, Thermosynechococcus elongatus; conditions: DMBQ 60 μM vs no mediator; +0.4 V vs Ag/AgCl; red light 660 nm, 10 s light/40 s dark
Experimental: as §1, §2
A 50 mM stock solution of DMBQ in ethanol was prepared fresh before the experiment and used as an electron mediator for PS II in various concentrations. […]

Structure (SMILES)	effect on generation of photocurrent by the PS II electrode (PS II [1])	effect on amplitude of photocurrent generated by the PS II electrode (PS II [2])
CN(C)C(=O)Nc1ccc(Cl)c(Cl)c1 [DCMU]	inhibited the generation of photocurrent	–
CC1=CC(=O)C=C(C)C1=O [DMBQ, 2,6-dimethyl 1,4-benzoquinone]	–	dramatically improved the amplitude of photocurrent
